Measurements reported in US6528532B1, “Urea derivatives as HIV aspartyl protease inhibitors” (Pharmacor Inc., priority 2002, dated 2003).

Tests used:
[1] = biological target: HIV protease (Human immunodeficiency virus type 1 group M subtype B, UniProt P04585); experiment: Enzymatic (FRET fluorometric) assay for determining the inhibition constant (Ki) of compounds targeting the HIV protease; assay type: biochemical; conditions: Ki, FRET substrate (EDANS/DABCYL), equation of Henderson
Description: Enzymatic Assay for Determining the Inhibition Constant (Ki) of Synthetic Compounds Targeting the HIV Protease
This is a fluorometric assay based on the cleavage by protease of a substrate carrying a donor group (EDANS) and an acceptor group (DABCYL) on each side of the cleavage site, interacting together through fluorescence resonance energy transfer (FRET) as described by Matayoshi et al. (Science 247:[…], 1990).
After calculation of Vo and Vi, the inhibition constant (Ki) of the compound is determined using the equation of Henderson: [formula]
where Vo=the enzyme's initial velocity
Vi=the enzyme velocity in the presence of the inhibitory compound,
[I]=inhibitor concentration, [S]=substrate concentration,
Km=Michaelis-Menten constant and Kiapp=apparent Ki
Graphs are traced and the Ki determined using GraphPad Prism software v. 3.0.

[2] = in vitro; assay type: cell-based; conditions: human
Method: To evaluate the EC50 of our compounds, various drug concentrations are incubated with the infected cell for six days and then the metabolic activity of the cells is monitored by the MTT assay. (See A. J. Japour et al, Antimicrobial Agents and Chemotherapy, 37, 1095-1101, 1993 and R. Pauwels et al. Journal of Virological Methods, 20, 309-321, 1988).
We use the laboratory viral strain NL4.3 as wild type virus and the cell line used is MT-4 which is a T-cell line highly sensitive to HIV-1. We also use some WT clinical strains. To address the resistance issue we assay the inhibitors with NL4.3 mutants which are designed to be resistant to specific commercially available inhibitors.
The same MTT assay is used to evaluate the CCIC50 (cell culture IC50) of our compounds except that the virus is omitted.

SMILES	Ki [1] [nM]	IC50 at 6 days [2] [µM]
Cc1ccc(S(=O)(=O)N(CC(C)C)[C@H](CO)CCCCNC(=O)N(Cc2ccccc2)Cc2ccc([N+](=O)[O-])cc2)cc1 [Example 61, (2S) 2-N-Isobutyl-2-N-(4-methylbenzenesulfonyl)-6-N-[N′-benzyl-N′-(4-nitrobenzyl)aminocarbonyl]-2,6-diaminohexanol]	9	5.1
CC(C)CN([C@H](CO)CCCCNC(=O)N(Cc1ccc2c(c1)OCO2)Cc1ccc2c(c1)OCO2)S(=O)(=O)c1ccc(N)cc1 [Example 85, (2S) 2-N-(4-Aminobenzenesulfonyl)-2-N-isobutyl-6-N-(N′,N′-dipiperonylaminocarbonyl)-2,6-diaminohexanol]	1.7	13.1
